Experiment [1] concerns the target T1, Tcp21 (halogenase from the teicoplanin system) (Actinoplanes teichomyceticus, UniProt Q70AY7).
T1 construct: synthetic codon-optimised gene, selected range 16-506, pET-28(a) via NdeI/HindIII, His-tagged, expressed in E. coli
T1 sequence (Q70AY7 16-506): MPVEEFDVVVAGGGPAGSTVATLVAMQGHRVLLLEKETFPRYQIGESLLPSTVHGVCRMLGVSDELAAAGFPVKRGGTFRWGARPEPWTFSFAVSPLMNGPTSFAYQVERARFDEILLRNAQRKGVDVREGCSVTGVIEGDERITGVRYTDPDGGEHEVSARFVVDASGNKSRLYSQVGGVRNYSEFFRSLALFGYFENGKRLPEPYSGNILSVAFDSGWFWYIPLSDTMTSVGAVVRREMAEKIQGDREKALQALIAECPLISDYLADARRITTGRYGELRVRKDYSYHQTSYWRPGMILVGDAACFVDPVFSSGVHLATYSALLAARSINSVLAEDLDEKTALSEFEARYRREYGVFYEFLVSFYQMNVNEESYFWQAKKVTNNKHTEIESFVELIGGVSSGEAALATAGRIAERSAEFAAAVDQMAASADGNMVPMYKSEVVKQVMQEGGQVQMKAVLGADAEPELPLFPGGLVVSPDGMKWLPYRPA
Nature of the experiment: purified as FAD-bound form. It is filed as binding. Conditions: FAD co-purified with the enzyme.

Experiment [2] deals with T2, BhaA (balhimycin halogenase) (Amycolatopsis balhimycina, UniProt O87676).
T2 construct: overproduced in Pseudomonas fluorescens BL915 deltaORF1-4 from shuttle vector pCIBhis (His tag)
T2 sequence (O87676 entry or part of it): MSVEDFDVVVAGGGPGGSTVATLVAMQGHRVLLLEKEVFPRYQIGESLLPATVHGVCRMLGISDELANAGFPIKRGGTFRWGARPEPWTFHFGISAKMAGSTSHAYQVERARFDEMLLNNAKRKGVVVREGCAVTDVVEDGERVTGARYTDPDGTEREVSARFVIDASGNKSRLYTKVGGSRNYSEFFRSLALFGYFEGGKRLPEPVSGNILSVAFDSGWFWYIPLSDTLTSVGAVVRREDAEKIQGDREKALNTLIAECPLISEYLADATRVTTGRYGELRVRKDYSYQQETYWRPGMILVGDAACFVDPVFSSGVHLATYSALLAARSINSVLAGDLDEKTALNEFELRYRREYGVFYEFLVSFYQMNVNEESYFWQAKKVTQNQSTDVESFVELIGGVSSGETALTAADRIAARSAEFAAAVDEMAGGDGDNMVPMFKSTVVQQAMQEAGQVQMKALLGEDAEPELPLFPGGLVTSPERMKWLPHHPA
The experiment in a line: purified as FAD-bound form. It is filed as binding. Conditions: FAD co-purified with the enzyme.

SMILES strings stand for the structures.

As for `Cc1cc2nc3c(=O)[nH]c(=O)nc-3n(C[C@H](O)[C@H](O)[C@H](O)COP(=O)(O)OP(=O)(O)OC[C@H]3O[C@@H](n4cnc5c(N)ncnc54)[C@H](O)[C@@H]3O)c2cc1C` [FAD], the “purified as FAD-bound form” value in experiment [1] is “Both enzymes could be overproduced and purified in an FAD-bound form as anticipated”; in experiment [2], “Both enzymes could be overproduced and purified in an FAD-bound form as anticipated”.
